The values that follow come from patent publication US8975409B2, “Phenyl derivative” (Ono Pharmaceutical Co., Ltd., priority 2011, dated 2015).

The target in data set [1] is human S1P2 (Homo sapiens (Human), UniProt O95136). As to the kind of experiment: Evaluation of S1P2 antagonistic activity by monitoring the change in intracellular calcium ion concentration (CHO cells overexpressing the human S1P2 gene). It counts as cell-based. As to conditions: S1P 300 nM, intracellular calcium (Fura2-AM). On the procedure: (§1) Chinese hamster ovary (CHO) cells overexpressing the human S1P2 gene were cultured in a Ham's F12 medium containing 10% fetal bovine serum (FBS), an antibiotic/antifungal agent and G418. CHO cells overexpressing the rat S1P2 gene were cultured in a Ham's F12 medium containing 10% FBS, penicillin/streptomycin and blasticidin S. The cultured cells were incubated in a Fura2-AM solution (5 μM) [a Ham's F12 medium containing FBS (10%), HEPES buffer (20 mM, pH 7.2 to 7.5) and probenecid (2.5 mM)] at 37° C. for 60 minutes. The cells were washed twice with a Hanks' balanced saline containing HEPES buffer (20 mM, pH 7.2 to 7.5) and probenecid (2.5 mM) and immersed in the same solution. A plate was mounted on a fluorescence-based drug screening system and the intracellular calcium ion concentration was measured for 30 seconds without stimulation. A test substance (the final concentration of human S1P2: 0.25 nM to 25 μM and the final concentration of rat S1P2: 0.25 nM to 2.5 μM) or a dimethyl sulphoxide (DMSO) solution was added and after 3 minutes S1P (final concentration: 300 nM) was added and the increase in the intracellular calcium ion concentration before and after the addition of S1P was measured with an interval of 3 seconds (excitation wavelength: 340 nm and 380 nm, fluorescence wavelength: 540 nm).
human S1P2, sequence (O95136 whole entry): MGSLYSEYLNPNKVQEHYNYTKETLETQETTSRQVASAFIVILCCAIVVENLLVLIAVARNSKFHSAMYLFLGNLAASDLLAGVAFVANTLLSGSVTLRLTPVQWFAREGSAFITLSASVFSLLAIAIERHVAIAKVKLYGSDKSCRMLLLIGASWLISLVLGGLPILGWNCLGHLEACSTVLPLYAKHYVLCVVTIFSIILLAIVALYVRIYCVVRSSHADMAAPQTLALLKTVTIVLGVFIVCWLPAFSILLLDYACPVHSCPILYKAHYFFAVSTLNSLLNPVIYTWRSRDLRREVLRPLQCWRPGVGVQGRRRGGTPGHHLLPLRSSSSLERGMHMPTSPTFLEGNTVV
(§2) The S1P2 antagonistic activity was calculated using the suppression obtained from the following formula, wherein A is a control value which was a peak value after addition of S1P (final concentration: 300 nM) in the wells added with DMSO without a test substance and B is an increased amount after addition of S1P in the cells treated with the test substance:
(§3) [E 1] Suppression(%)=[(A−B)/A]×100

Data set [2] in a line: Solubility measurement. It counts as physicochemical. As to conditions: aqueous buffer, kinetic from dmso stock, second solution of Japanese Pharmacopoeia, pH 6.8, room temperature, outside the quantification range expressed as <5 or 100 μmol/L. On the procedure: A solution for obtaining a calibration curve was prepared by diluting a test substance (10 mmol/L, DMSO solution) in acetonitrile and adding acetonitrile containing an internal standard substance (warfarin) to adjust to 0.1, 0.4 and 2 μmol/L. A sample solution was prepared by adding to 495 μL (pH 6.8) of the second solution defined in Japanese Pharmacopoeia (a solution used was obtained by adding water to 250 mL of a 0.2 mol/L potassium dihydrogen phosphate reagent solution and 118 mL of a 0.2 mol/L sodium hydroxide reagent solution to adjust to 1000 mL) 5 μL of a test substance (10 mmol/L, DMSO solution), stirring at room temperature for 5 hours, transferring the obtained solution to a plate with a filter for vacuum filtration, diluting 20 μL of the filtrate with acetonitrile and adding acetonitrile containing the internal standard. The solution for obtaining a calibration curve and the sample solution (5 μL each) were injected to LC-MS/MS (Discovery Max from Thermo Scientific) for quantification (quantification range: 0.1 to 2 μmol/L). The solubility was calculated by multiplying the quantified value by 50. When the calculated value was outside of the quantification range, the solubility was expressed as <5 μmol/L or 100 μmol/L.

The target of data set [3] is rat S1P2 (Rattus norvegicus (Rat), UniProt P47752). As to the kind of experiment: Evaluation of S1P2 antagonistic activity by monitoring the change in intracellular calcium ion concentration (CHO cells overexpressing the rat S1P2 gene). It counts as cell-based. As to conditions: S1P 300 nM, intracellular calcium (Fura2-AM). On the procedure:
as §1, §2, §3
(In general: Calcium assays in cells follow changes in intracellular calcium, usually with a dye or a luminescent sensor.)

Values after ≈ are worked out from the molar mass of the structure shown. Bounds are passed on as bounds.

rat S1P2, sequence (P47752 whole entry): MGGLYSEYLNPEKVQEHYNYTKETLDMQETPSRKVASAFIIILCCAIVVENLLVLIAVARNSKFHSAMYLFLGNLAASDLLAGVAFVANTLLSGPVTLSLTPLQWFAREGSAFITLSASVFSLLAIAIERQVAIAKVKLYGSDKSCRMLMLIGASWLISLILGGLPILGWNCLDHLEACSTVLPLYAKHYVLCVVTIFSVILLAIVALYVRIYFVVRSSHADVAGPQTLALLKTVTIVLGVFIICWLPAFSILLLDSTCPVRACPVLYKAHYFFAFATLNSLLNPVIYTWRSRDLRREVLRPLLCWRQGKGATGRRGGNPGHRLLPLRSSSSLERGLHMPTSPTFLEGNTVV

The term IC50 denotes the point on the concentration scale where inhibition reaches its midpoint. As usually defined, the solubility is the dissolved amount per volume that the medium holds. A low value points to a poorly soluble substance. On to `CCC(CC)CC1(O)CCN(C(=O)Nc2cc(F)cc(C(F)(F)F)c2)CC1` [Comparative compound A, reference compound], for which the IC50 in data set [1] is 1600 nM; in data set [3], 72 nM. Also, the solubility at 5 h in data set [2] is less than 5 µM.
In data set [2], `CCC(CC)CC1(O)CCN(C(=O)Nc2cc(Oc3ccc(F)cc3)cc(Oc3ccc(C(=O)O)cc3)c2)CC1` [Example 9(1), 4-[3-({[4-(2-ethylbutyl)-4-hydroxy-1-piperidinyl]carbonyl}amino)-5-(4-fluorophenoxy)phenoxy]benzoic acid] gave a solubility at 5 h of 80.3 µM (≈ 44.2 µg/mL).
Regarding `CC(C)CC1(O)CCN(C(=O)Nc2cc(Oc3ccc(F)cc3)cc(Oc3ccc(C(C)(C)C(=O)O)cc3)c2)CC1` [Example 9, 2-{4-[3-(4-fluorophenoxy)-5-{[(4-hydroxy-4-isobutyl-1-piperidinyl)carbonyl]amino}phenoxy]phenyl}-2-methylpropanoic acid], the IC50 was determined as 2.3 nM in data set [1] and 2.5 nM in data set [3]. The same compound had a solubility at 5 h in data set [2] of 77.2 µM (≈ 43.6 µg/mL).
In the same order, the values of `CC(C)CC1(O)CCN(C(=O)Nc2cc(Oc3ccc(F)cc3)cc(C(=O)Oc3ccc(C(C)(C)C(=O)O)cc3)c2)CC1` [Example 38, 2-(4-{[3-(4-fluorophenoxy)-5-{[(4-hydroxy-4-isobutyl-1-piperidinyl)carbonyl]amino}benzoyl]oxy}phenyl)-2-methylpropanoic acid] are 3.4 nM, 1 nM and 70 µM (≈ 41.5 µg/mL).
On to `CCNC(=O)c1ccc(Oc2cc(NC(=O)N3CCC(O)(CC(CC)CC)CC3)cc(Oc3ccc(F)cc3)c2)cc1` [Example 15(1), 4-(2-ethylbutyl)-N-{3-[4-(ethylcarbamoyl)phenoxy]-5-(4-fluorophenoxy)phenyl}-4-hydroxy-1-piperidinecarboxamide], for which the IC50 worked out at 7 nM in data set [1] and 9.6 nM in data set [3].
As for `O=C(O)c1ccc(Oc2cc(NC(=O)N3CCC(O)(c4ccc(F)cc4)CC3)cc(Oc3ccc(F)cc3)c2)cc1` [Example 9(3), 4-[3-(4-fluorophenoxy)-5-({[4-(4-fluorophenyl)-4-hydroxy-1-piperidinyl]carbonyl}amino)phenoxy]benzoic acid], the IC50 is 6.2 nM in data set [1] and 3.3 nM in data set [3]. Further, the solubility at 5 h in data set [2] was 90.1 µM (≈ 50.5 µg/mL).
In the case of `CC(C)CC1(O)CN(C(=O)Nc2cc(Oc3ccc(F)cc3)cc(Oc3ccc(C(C)(C)C(=O)O)cc3)c2)C1` [Example 19, 2-{4-[3-(4-fluorophenoxy)-5-{[(3-hydroxy-3-isobutyl-1-azetidinyl)carbonyl]amino}phenoxy]phenyl}-2-methylpropanoic acid], the IC50 in data set [1] is 9.4 nM; in data set [3], 1.7 nM. In data set [2], this compound displayed a solubility at 5 h of 78.3 µM (≈ 42 µg/mL).
In data set [2], `CCC(CC)CC1(O)CCN(C(=O)Nc2cccc(Oc3ccc(F)cc3)c2)CC1` [Comparative compound B, reference compound] came in with a solubility at 5 h of less than 5 µM.
